Test results published in patent publication EP1981504B1, “THIADIAZOLE DERIVATIVES FOR THE TREATMENT OF NEURO DEGENERATIVE DISEASES” (NV reMYND, priority 2006, dated 2007).
Values after ≈ are worked out from the molar mass of the structure shown.

Key:
M17-SYNwt cells = assay: α-synuclein cytotoxicity assay (LDH leakage from paraquat-treated α-synuclein over-expressing neuroblastoma cells); assay type: cell-based, human; conditions: paraquat 32 mM, 40 hours, LDH release; for EC50: Homo sapiens, Neuroblastoma cell; for %I: percent inhibition of synuclein cytotoxicity at most effective concentration of test compound, relative to untreated paraquat cells
Method in brief: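 M17 neuroblastoma cells over-expressing wild-type α-synuclein were challenged with paraquat, and cytotoxicity was read as LDH release. Protection was expressed as percent reduction of paraquat-induced LDH release relative to untreated paraquat cells and control cells. Actives were retested in 10-point duplicate dose responses.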

[1] = test system: dopaminergic substantia nigra neurons; assay: in vivo inhibition of paraquat-triggered loss of substantia nigra neurons (tyrosine hydroxylase immunohistochemistry); conditions: mice, paraquat intraperitoneal not higher than 8 mg/kg/day, compound not higher than 20 mg/kg body weight/day, 8 weeks treatment, versus vehicle
Procedure: In order to model neuronal loss in the substantia nigra region of the brain, mice were treated with paraquat (intraperitoneal) at a dose not higher than 8 mg/kg/day for a continuous period of 15-100 days. These mice were also chronically co-treated during that period with: • compound 60 (1-[4-methoxyphenylsulfonyl]-4-[3-(4-methylbenzyl)-1,2,4-thiadiazol-5-yl]-2-methylpiperazine), or • compound 32 (1-[4-methoxyphenylsulfonyl]-4-[3-(4-fluorobenzyl)-1,2,4-thiadiazol-5-yl]piperazine), or • compound 53 (1-[4-methoxyphenylsulfonyl]-4-[3-(3-methoxy-benzyl)-1,2,4-thiadiazol-5-yl]piperazine), each being administered at a dose not higher than 20 mg/kg body weight/day), or by vehicle only (no active compound). Mice treatment by means of vehicle or a compound of the invention started 2 days before administration of paraquat.
At the end of the treatment period, mice were sacrificed and the corresponding brains were used for immunohistochemical analysis. […] Using antibodies raised against tyrosin hydroxylase (anti-tyrosin hydroxylase), tyrosine hydroxylase containing neurons in the brains were detected.
Three groups of mice were treated with either paraquat and compound 53 (group 3; n=6), or paraquat and vehicle of compound 53 (group 2; n=4), or vehicle paraquat and vehicle of compound 53 (group 1; n=3). […] Per mouse, the median %TH-positive areas (of the substantia nigra regions) was determined. […]

COc1ccc(S(=O)(=O)N2CCN(c3nc(Cc4cccc(OC)c4)ns3)CC2)cc1 [Compound 53, 1-[4-methoxyphenylsulfonyl]-4-[3-(3-methoxybenzyl)-1,2,4-thiadiazol-5-yl]piperazine]
EC50 (M17-SYNwt cells; 10 point curves in duplicate): 0.00066 µg/mL (≈ 0.00143 µM)
%I (M17-SYNwt cells): 83%
TH-positive area of the substantia nigra [1]: protects dopaminergic substantia nigra neurons against paraquat-triggered degeneration

COc1ccccc1C(=O)N1CCN(c2nc(Cc3ccc(F)cc3)ns2)CC1C (centres unmarked) [Compound 133, 1-(2-methoxybenzoyl)-4-[3-(4-fluorobenzyl)-1,2,4-thiadiazol-5-yl]-2-methylpiperazine]
EC50 (M17-SYNwt cells; 10 point curves in duplicate): 0.29 µg/mL (≈ 0.68 µM)
%I (M17-SYNwt cells): 118%

CCc1ccc(C(=O)NCCN2CCN(c3nc(Cc4ccc(F)cc4)ns3)CC2)cc1 [Compound 103, 4-ethyl-N-{2-[4-[3-(4-fluorobenzyl)-1,2,4-thiadiazol-5-yl]piperazin-1-yl]ethyl}benzamide]
EC50 (M17-SYNwt cells; 10 point curves in duplicate): 2.32 µg/mL (≈ 5.11 µM)
%I (M17-SYNwt cells): 139%

O=C(/C=C/c1ccccc1)N1CCN(c2nc(Cc3ccc(Cl)cc3)ns2)CC1 [Compound 88, 1-[(2E)-3-phenylprop-2-enoyl]-4-[3-(4-chlorobenzyl)-1,2,4-thiadiazol-5-yl]piperazine]
%I (M17-SYNwt cells): 72%

CCCCCCc1ccc(C(=O)N2CCN(c3nc(Cc4ccc(C)cc4)ns3)CC2)cc1 [Compound 176, 1-(4-hexylbenzoyl)-4-[3-(4-methylbenzyl)-1,2,4-thiadiazol-5-yl]piperazine]
%I (M17-SYNwt cells): 77%

COc1ccc(S(=O)(=O)N2CCN(c3nc(Cc4ccccc4OC)ns3)CC2)cc1 [Compound 203]
EC50 (M17-SYNwt cells; 10 point curves in duplicate): 0.0062 µg/mL (≈ 0.0135 µM)
%I (M17-SYNwt cells): 61%

CC1CN(c2nc(Cc3ccc(F)cc3)ns2)CCN1C(=O)C(Cl)c1ccccc1 (centres unmarked) [Compound 7, 1-[chloro(phenyl)acetyl]-4-[3-(4-fluorobenzyl)-1,2,4-thiadiazol-5-yl]-2-methylpiperazine]
%I (M17-SYNwt cells): 69%

COc1ccc(S(=O)(=O)N2CCN(c3nc(Cc4ccccc4C)ns3)CC2)cc1 [Compound 202]
EC50 (M17-SYNwt cells; 10 point curves in duplicate): 0.0075 µg/mL (≈ 0.0169 µM)
%I (M17-SYNwt cells): 63%

Cc1ccc(Cc2nsc(N3CCN(S(=O)(=O)c4ccc(C(C)(C)C)cc4)CC3)n2)cc1 [Compound 67, 1-[4-tert-butylphenylsulfonyl]-4-[3-(4-methylbenzyl)-1,2,4-thiadiazol-5-yl]piperazine]
%I (M17-SYNwt cells): 41%

CC1CN(c2nc(Cc3ccc(Cl)cc3)ns2)CCN1C(=O)c1cccc(F)c1 (centres unmarked) [Compound 125, 1-(3-fluorobenzoyl)-4-[3-(4-chlorobenzyl)-1,2,4-thiadiazol-5-yl]-2-methylpiperazine]
EC50 (M17-SYNwt cells; 10 point curves in duplicate): 0.16 µg/mL (≈ 0.371 µM)
%I (M17-SYNwt cells): 68%

COc1ccc(S(=O)(=O)N2CCN(c3nc(Cc4ccccc4F)ns3)CC2)cc1 [Compound 194, 1-[4-methoxyphenylsulfonyl]-4-[3-(2-fluoro-benzyl)-1,2,4-thiadiazol-5-yl]piperazine]
EC50 (M17-SYNwt cells; 10 point curves in duplicate): 0.0012 µg/mL (≈ 0.00268 µM)
%I (M17-SYNwt cells): 102%

CC(C)(C)c1ccc(S(=O)(=O)N2CCN(c3nc(Cc4ccc(F)cc4)ns3)CC2)cc1 [Compound 61, 1-[4-ter-butylphenylsulfonyl]-4-[3-(4-fluorobenzyl)-1,2,4-thiadiazol-5-yl]piperazine]
%I (M17-SYNwt cells): 47%

COc1cccc(Cc2nsc(N3CCN(C(=O)c4ccc(Br)cc4)C(C)C3)n2)c1 (centres unmarked) [Compound 170, 1-(4-bromobenzoyl)-4-[3-(3-methoxybenzyl)-1,2,4-thiadiazol-5-yl]-2-methylpiperazine]
%I (M17-SYNwt cells): 89%

COc1ccc(C(=O)N2CCN(c3nc(Cc4ccc(F)cc4)ns3)CC2C)cc1 (centres unmarked) [Compound 118, 1-(4-methoxybenzoyl)-4-[3-(4-fluorobenzyl)-1,2,4-thiadiazol-5-yl]-2-methylpiperazine]
EC50 (M17-SYNwt cells; 10 point curves in duplicate): 0.0911 µg/mL (≈ 0.214 µM)
%I (M17-SYNwt cells): 64%

CC1CN(c2nc(Cc3ccc(F)cc3)ns2)CCN1C(=O)c1cccc(Br)c1 (centres unmarked) [Compound 142, 1-(3-bromobenzoyl)-4-[3-(4-fluorobenzyl)-1,2,4-thiadiazol-5-yl]-2-methylpiperazine]
EC50 (M17-SYNwt cells; 10 point curves in duplicate): 0.5 µg/mL (≈ 1.05 µM)
%I (M17-SYNwt cells): 72%

CCc1ccc(C(=O)N2CCN(c3nc(Cc4ccc(C)cc4)ns3)CC2)cc1 [Compound 131, 1-(4-ethylbenzoyl)-4-[3-(4-methylbenzyl)-1,2,4-thiadiazol-5-yl]piperazine]
EC50 (M17-SYNwt cells; 10 point curves in duplicate): 0.25 µg/mL (≈ 0.615 µM)
%I (M17-SYNwt cells): 91%

N-(2,6-dichlorophenyl)-4-[3-(4-fluorobenzyl)-1,2,4-thiadiazol-5-yl]-2-methylpiperazine-1-carboxamide [Compound 21]
EC50 (µg/mL) (M17-SYNwt cells; 10 point curves in duplicate): 0,79 µg/mL
%I (M17-SYNwt cells): 70%

COc1ccc(S(=O)(=O)N2CCN(c3nc(Cc4cccc(C)c4)ns3)CC2)cc1 [Compound 201]
EC50 (M17-SYNwt cells; 10 point curves in duplicate): 0.0021 µg/mL (≈ 0.00472 µM)
%I (M17-SYNwt cells): 97%

Cc1ccccc1NC(=O)N1CCN(c2nc(Cc3ccc(F)cc3)ns2)CC1 [Compound 15, N-(2-methylphenyl)-4-[3-(4-fluorobenzyl)-1,2,4-thiadiazol-5-yl]piperazine-1-carboxamide]
EC50 (M17-SYNwt cells; 10 point curves in duplicate): 5.01 µg/mL (≈ 12.2 µM)
%I (M17-SYNwt cells): 65%

CC1CN(c2nc(Cc3ccc(F)cc3)ns2)CCN1S(=O)(=O)c1ccccc1 (centres unmarked) [Compound 47, 1-phenylsulfonyl-4-[3-(4-fluorobenzyl)-1,2,4-thiadiazol-5-yl]-2-methylpiperazine]
%I (M17-SYNwt cells): 129%

CC(=O)Nc1ccc(S(=O)(=O)N2CCN(c3nc(Cc4ccc(C)cc4)ns3)CC2)cc1 [Compound 49, 1-[4-acetamidophenylsulfonyl]-4-[3-(4-methylbenzyl)-1,2,4-thiadiazol-5-yl]piperazine]
EC50 (M17-SYNwt cells; 10 point curves in duplicate): 0.000106 µg/mL (≈ 0.000225 µM)
%I (M17-SYNwt cells): 77%

Cc1ccc(Cc2nsc(N3CCN(C(=O)c4ccccc4F)CC3)n2)cc1 [Compound 175, 1-(2-fluorobenzoyl)-4-[3-(4-methylbenzyl)-1,2,4-thiadiazol-5-yl]piperazine]
%I (M17-SYNwt cells): 78%

CCc1ccc(C(=O)N2CCN(c3nc(Cc4cccc(OC)c4)ns3)CC2C)cc1 (centres unmarked) [Compound 143, 1-(4-ethylbenzoyl)-4-[3-(3-methoxybenzyl)-1,2,4-thiadiazol-5-yl]-2-methylpiperazine]
EC50 (M17-SYNwt cells; 10 point curves in duplicate): 0.56 µg/mL (≈ 1.28 µM)
%I (M17-SYNwt cells): 89%

COc1ccc(CC(=O)N2CCN(c3nc(Cc4ccc(F)cc4)ns3)CC2C)cc1 (centres unmarked) [Compound 4, 1-(4-methoxyphenylacetyl)-4-[3-(4-fluorobenzyl)-1,2,4-thiadiazol-5-yl]-2-methylpiperazine]
EC50 (M17-SYNwt cells; 10 point curves in duplicate): 0.82 µg/mL (≈ 1.86 µM)
%I (M17-SYNwt cells): 56%

Cc1ccc(Cc2nsc(N3CCN(S(=O)(=O)c4ccc(Br)cc4)CC3)n2)cc1 [Compound 64, 1-[4-bromophenylsulfonyl]-4-[3-(4-methylbenzyl)-1,2,4-thiadiazol-5-yl]piperazine]
%I (M17-SYNwt cells): 58%

CC1CN(c2nc(Cc3ccc(Cl)cc3)ns2)CCN1C(=O)/C=C/c1ccccc1 (centres unmarked) [Compound 86, 1-[(2E)-3-phenylprop-2-enoyl]-4-[3-(4-chlorobenzyl)-1,2,4-thiadiazol-5-yl]-2-methylpiperazine]
EC50 (M17-SYNwt cells; 10 point curves in duplicate): 1.13 µg/mL (≈ 2.57 µM)
%I (M17-SYNwt cells): 81%

O=C(Nc1ccc(F)c(F)c1)N1CCN(c2nc(Cc3ccc(F)cc3)ns2)CC1 [Compound 28, N-(3,4-difluorophenyl)-4-[3-(4-fluorobenzyl)-1,2,4-thiadiazol-5-yl]piperazine-1-carboxamide]
%I (M17-SYNwt cells): 64%

Cc1ccccc1C(=O)NCCN1CCN(c2nc(Cc3ccc(F)cc3)ns2)CC1 [Compound 99, 2-methyl-N-{2-[4-[3-(4-fluorobenzyl)-1,2,4-thiadiazol-5-yl]piperazin-1-yl]ethyl}benzamide]
EC50 (M17-SYNwt cells; 10 point curves in duplicate): 1.58 µg/mL (≈ 3.59 µM)
%I (M17-SYNwt cells): 97%
